From US6630124B1, “Combination therapy with VIP antagonist” (Ramot-University Authority for Applied Research and …, priority 1998, dated 2003)
Where no end group is shown, it is not given here. [ ]: non-standard residue; d: D form. The star is where a group is joined. Stearoyl = CCCCCCCCCCCCCCCCCC(=O)*; Nle = CCCC[C@H](N)C(=O)O

T1: VIP receptor on U-87 cells (UniProt P32241 31-457, limits assumed)
T1 construct: whole, on cells; also called VIP1 receptor; VPAC1 receptor
T1 sequence (looked up): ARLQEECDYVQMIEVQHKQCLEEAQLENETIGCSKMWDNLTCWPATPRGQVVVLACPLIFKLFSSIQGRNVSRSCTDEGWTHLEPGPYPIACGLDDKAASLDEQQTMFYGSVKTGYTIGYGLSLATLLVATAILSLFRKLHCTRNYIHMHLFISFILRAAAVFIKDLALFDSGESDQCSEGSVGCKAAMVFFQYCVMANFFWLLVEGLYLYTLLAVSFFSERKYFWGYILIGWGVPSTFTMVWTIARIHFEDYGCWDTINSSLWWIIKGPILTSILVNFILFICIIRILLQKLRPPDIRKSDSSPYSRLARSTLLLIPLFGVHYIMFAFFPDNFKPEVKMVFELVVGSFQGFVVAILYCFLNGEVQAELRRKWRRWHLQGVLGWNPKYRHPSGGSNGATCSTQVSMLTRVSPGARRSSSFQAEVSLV

B1: (N-Stearyl-Norleucine17) VIPhybrid (peptide)
peptide: Stearoyl-KPRRPYTDNYTRLRKQ[Nle]AVKKYLNSILN-NH2
SMILES: CCCCCCCCCCCCCCCCCC(=O)N[C@@H](CCCCN)C(=O)N1CCC[C@H]1C(=O)N[C@@H](CCCNC(=N)N)C(=O)N[C@@H](CCCNC(=N)N)C(=O)N1CCC[C@H]1C(=O)N[C@@H](Cc1ccc(O)cc1)C(=O)N[C@H](C(=O)N[C@@H](CC(=O)O)C(=O)N[C@@H](CC(N)=O)C(=O)N[C@@H](Cc1ccc(O)cc1)C(=O)N[C@H](C(=O)N[C@@H](CCCNC(=N)N)C(=O)N[C@@H](CC(C)C)C(=O)N[C@@H](CCCNC(=N)N)C(=O)N[C@@H](CCCCN)C(=O)N[C@@H](CCC(N)=O)C(=O)N[C@@H](CCCC)C(=O)N[C@@H](C)C(=O)N[C@H](C(=O)N[C@@H](CCCCN)C(=O)N[C@@H](CCCCN)C(=O)N[C@@H](Cc1ccc(O)cc1)C(=O)N[C@@H](CC(C)C)C(=O)N[C@@H](CC(N)=O)C(=O)N[C@@H](CO)C(=O)N[C@H](C(=O)N[C@@H](CC(C)C)C(=O)N[C@@H](CC(N)=O)C(N)=O)[C@@H](C)CC)C(C)C)[C@@H](C)O)[C@@H](C)O
notes: Synthetic lipophilic VIP antagonist; also called (SN)VIPhybrid; SNVIPhybrid

Assays:
[1] = system: cell lines derived from colon cancer and prostate cancer; assay: MTS colorimetric proliferation assay, VIP antagonist with chemotherapeutic agents (Example I); type: cell-based; settings: combination with stearyl-Nle17-neurotensis 6-11 VIP 7-28
Description: Assays were performed with cell lines derived from colon cancer and prostate cancer. Proliferation was assessed using the MTS colorimetric assay of mitochondrial function for living cells. The VIP antagonist (stearyl-Nle17-neurotensis 6-11 VIP 7-28) was used.

[2] = system: NCI-H727 non-small cell lung cancer (carcinoid); assay: MTS cell proliferation assay, SNH and chemotherapy; type: cell-based; settings: for reduction of the IC50 of the chemotherapeutic agent by SNH: 5 μM SNH, NCI-H727; for nature of the combined effect with SNH: combination with SNH
Description: NCI-H727 and LNCaP were grown in RPMI 1640 medium supplemented with 10% heat inactivated FCS, L-glutamine and antibiotics. HT-29 and CT-26 were grown in DMEM medium supplemented with 10% heat-inactivated FCS (fetal calf serum), L-glutamine and antibiotics. The cells were cultured in 5% CO2/95% air at […] and used during their exponential growth phase. Routinely, the cells which are adherent, were split when a subconfluent monolayer was formed. In different experiments, various concentration of FCS were used. For growth inhibition experiments, subconfluent adherent cells were washed with PBS and treated with trypsin/versene. The cells were pelleted and resuspended in medium to a final concentration of 75,000 cells/mL for NCI-H727. 50,000 cells/mL for LNCaP and HT-29 and 25000 cells/mL for CT-26. These different concentrations were used in order to avoid confluence in the wells at the end of the experiment and correspond to the different doubling times of the cell lines. On day 0, cells suspensions […] were dispensed using a multi-channel pipet into the individual wells of a 96-well tissue culture plate (Nuncion, Nunc Brand Products). […] Cells were incubated for 24 hours in a humidified atmosphere of 95% air/5% CO2 at 37° C. before treatment. On day 1, the cells were treated with different drugs and schedules and maintained under the same conditions. On day 4, viable cell number was determined by a modified MTT assay i.e., MTS non-radioactive cell proliferation assay (Promega). […] Results were finally expressed as percentage of the control, which was obtained from the samples with no drug treatment. Dose-response curves were plotted using a Sigma-Plot software and statistically analyzed using Student test. To determine the effect of the lipophilic VIP antagonist SNH on cell proliferation, cells plated in 96-well microplates for 24 hours as described, were treated with various concentrations of SNH. The peptide was diluted in PBS and […] of the peptide solution was added to each well for a final concentration of the peptide between 10^−510^−9 M. The solvent was added to the control wells. […] A dose-response curve was obtained at concentrations ranging from 2 μM-10 μM (see, FIG. 2). […] The effects of an 8 hours treatment were slightly less, showing that most of the effect is in the initial hours of exposure and much more dose than time dependent. […] For the experiments with the combinations of VIP antagonists and chemotherapeutic agents, on day 0, the cells were plated for 24 hours in medium supplemented with 5% FCS. On day 1, the peptide was added to the wells followed 1 hour later by the chemotherapeutic agents. […] The chemotherapeutic drugs were tested over 7 concentrations, covering as much as possible of the dose response curve of each individual drug. 24 hours later, the medium was exchanged and the cells incubated under the same conditions for another 48 hours. On day 4 the number of viable cells was determined by MTS assay.

MCF-7 cells = assay: MTT colorimetric assay, breast cancer cells (Example 6); type: cell-based; settings: for Absorbance at 570 nM: MCF-7, MTT, 5 days
Description: The ability of VIP receptor antagonists to alter the growth of breast cancer cells was investigated in vitro using the MTT colorimetric. The semiautomated MTT assay measures reduction of a tetrazolium compound by tumor cells to formazan. The optical density at 570 nm was determined for 8 wells at each inhibitor concentration. Seeding densities were 5×10^4 cells/well and cells were grown in 96 well plates for 5 days.

MDA-MB231 xenografts = assay: MDA-MB231 breast cancer xenografts in nude mice; type: in vivo, Balb/c nude mice; settings: after 4 weeks; VIPhyb 10 μg/day s.c., Taxol 1.5 mg i.p. once; PBS control 1121 mm^3
Description: To test the proliferative aspects of VIPhybrid analogs in vivo, nude mice bearing breast cancer xenografts were utilized. Female athymic Balb/c nude mice, 4-5 weeks old, were housed in a pathogen-free temperature controlled isolation room and the diet consisted of autoclaved rodent chow and autoclaved water given ad libitum. MDA-MB231 cells (1×10^7) were injected into the right flank of each mouse subcutaneously. […] PBS (100 μl) or VIPhyb analogs (10 μg/day) were injected subcutaneously adjacent to the tumor. Taxol was injected once (1.5 mg i.p.) after 2 weeks. The tumor volume (height×width×depth) was determined twice weekly by calipers and recorded.

[3] = system: VIP receptor (glioblastoma cells); assay: cAMP in glioblastoma cells, basal and VIP-stimulated; type: cell-based; settings: 10 nM VIP
Text: The effects of VIP receptor antagonists on glioblastoma cell lines were investigated.

[4] = molecular target: T1, VIP receptor on U-87 cells; assay: competition with 125I-VIP for binding to U-87 cells

Row | Molecule | effect of the combination with the VIP antagonist [1] | enhancement of the antiproliferative activity of the chemotherapeutic agent by the lipophilic VIP antagonist [1] | nature of the combined effect with SNH [2] | other results
1 | CCC1=C[C@@H]2CN(C1)Cc1c([nH]c3ccccc13)[C@@](C(=O)OC)(c1cc3c(cc1OC)N(C)[C@H]1[C@@](O)(C(=O)OC)[C@H](OC(C)=O)[C@]4(CC)C=CCN5CC[C@]31[C@@H]54)C2 [navelbine] | synergistic | enhance the antiproliferative activity | synergistic | reduction of the IC50 of the chemotherapeutic agent by SNH [2]: at least 2 fold
2 | KPRRPYTDNYTRLRKQMAVKKYLNSILN [VIPhyb, earlier hybrid VIP antagonist: neurotensin 6-11 joined to VIP 7-28] |  |  |  | Absorbance at 570 nM (MCF-7 cells; 1 μM): .417 ± .064; Absorbance at 570 nM (MCF-7 cells; 3 μM): .353 ± .048; Absorbance at 570 nM (MCF-7 cells; 10 μM): .317 ± .030; inhibition of MCF-7 proliferation (MCF-7 cells; 10 μM, MTT assay): significantly inhibited; tumor volume (height×width×depth) (MDA-MB231 xenografts): 508 mm^3; order of peptide potency, inhibition of VIP-stimulated cAMP [3]: (SN)VIPhybrid>VIP hybrid >PTC4495
3 | N.N.[Cl][Pt][Cl] [cisplatin, cis-dichlorodiammineplatinum II] | synergistic |  | synergistic | reduction of the IC50 of the chemotherapeutic agent by SNH [2]: 4 fold
4 | Cl.Nc1ccn([C@@H]2O[C@H](CO)[C@@H](O)C2(F)F)c(=O)n1 [gemcitabine, 2′-deoxy-2′,2′-difluorocytidine hydrochloride] |  | enhance the antiproliferative activity | only additive | 
5 | COc1cccc2c1C(=O)c1c(O)c3c(c(O)c1C2=O)C[C@@](O)(C(=O)CO)C[C@@H]3O[C@H]1C[C@H](N)[C@H](O)[C@H](C)O1 [doxorubicine] | synergistic | enhance the antiproliferative activity | less pronounced | 
6 | B1 |  |  |  | IC50 [4]: 500 nM
7 | KPRRPYTDNYTRLRKQMAVKKYLNSILN (ends and bridges not checked) [Neurotensis 6-11 VIP7-28 (VIPhybrid)] |  |  |  | IC50 [4]: 70 nM
